Data: patent publication US10464922B2, “Metalloenzyme inhibitor compounds” (NQP 1598 LTD., priority 2015, dated 2019)
In brackets after ≈: the same amount, converted by molar mass.

What was measured:
[1] = system: C. albicans (ATCC 90028); experiment: Minimum inhibitory concentration, in vitro broth microdilution assay (CLSI M27-A2); assay type: cell-based, Candida albicans; conditions: ATCC 90028, about 50% growth reduction, 2 days at 36° C., range tested 8-0.0078 μg/mL, values given as ranges; for MIC: Candida albicans, ATCC90028, 48 h, read-out: Candida albicans MIC
Outline: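 CLSI M27-A2 broth microdilution: 11 two-fold DMSO dilutions into RPMI-1640+MOPS with 1×10^3–1×10^4 CFU/mL, 2 percent DMSO final. Incubated 2 days at 36° C; MIC from visual growth scoring, duplicates.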

[2] = system: A. fumigatus; experiment: A. fumigatus MIC at 100% growth inhibition (CLSI M38-A2); assay type: cell-based, Aspergillus fumigatus; conditions: 100% growth inhibition, range tested 8-0.0078 μg/mL, values given as ranges; for MIC: Aspergillus fumigatus, read-out: Aspergillus fumigatus MIC
Description: A. fumigatus MICs were determined at 100% growth inhibition following CLSI guidelines at a concentration range of 8-0.0078 μg/mL (CLSI M38-A2).

[3] = system: Hedgehog signaling pathway Gli Reporter-NIH3T3 cells; experiment: Gli luciferase reporter assay, Hedgehog signalling pathway activity; assay type: cell-based; conditions: mShh 1 μg/ml, 27 hours
Description: Hedgehog signaling pathway Gli Reporter-NIH3T3 cells were cultured in DMEM medium with 10% Calf serum, 1% Penn-strep, 500 μg/ml of Geneticin.
To perform the Gli luciferase reporter assay, Gli Reporter—NIH3T3 cells were seeded at 25,000 cells per well into white clear-bottom 96-well microplate in 100 μl of growth medium. Cells were incubated at 37° C., and 5% CO2 for overnight. The next day, remove the medium from wells and add 45 μl of diluted inhibitor in assay medium (Opti-MEM Reduced Serum Medium+0.5% calf serum+1% non-essential amino acids+1 mM Na-pyruvate+10 mM HEPES+1% Pen/Strep) per well. Incubate cells at 37° C. in a CO2 incubator for 2 hours. Then add 5 μl of diluted mShh in assay medium to wells (final [mShh]=1 μg/ml). Add 50 μl of assay medium to cell-free control wells. Cells were treated for 27 hours. After treatment, cells were lysed and luciferase assay was performed using ONE-Step luciferase assay system: add 50 μl of One-Step Luciferase reagent per well and rock at room temperature for ˜30 minutes. Luminescence was measured using a luminometer (BioTek Synergy™ 2 microplate reader). Compounds of the present invention are active in blockade of hedgehog signalling.

Row | SMILES | MIC [1] [µg/mL] | MIC [2] [µg/mL] | Candida albicans MIC [1] [µg/mL] | Aspergillus fumigatus MIC [2] [µg/mL] | IC50 [3] [nM]
1 | CC[C@@H]([C@H](C)O)n1ncn(-c2ccc(N3CCN(c4ccc(-c5ccc(C(F)(F)C(O)(Cn6cnnn6)c6cccc(F)c6)nc5)cc4)CC3)cc2)c1=O (single isomer, unassigned; (+)) [64(+)] | 0.01 to 0.1 (≈ 0.0135 to 0.135 µM) | 0.25 to 1 (≈ 0.337 to 1.35 µM) | – | – | 160
2 | CC[C@@H]([C@H](C)O)n1ncn(-c2ccc(N3CCN(c4ccc(-c5ccc(C(F)(F)C(O)(Cn6cnc(C(F)(F)F)n6)c6ccccc6F)nc5)cc4)CC3)cc2)c1=O (stereo partly drawn) [106(+)] | > 8 | > 8 | – | – | 310
3 | CC[C@@H]([C@H](C)O)n1ncn(-c2ccc(N3CCN(c4ccc(-c5ccc(C(F)(F)C(O)(Cn6cnnn6)c6ccc(F)cc6)nc5)cc4)CC3)cc2)c1=O (single isomer, unassigned; (+)) [63(+)] | 0.01 to 0.1 (≈ 0.0135 to 0.135 µM) | 0.062 to 0.25 (≈ 0.0837 to 0.337 µM) | – | – | 150
4 | CC[C@@H]([C@H](C)O)n1ncn(-c2ccc(N3CCN(c4ccc(-c5ccc(C(F)(F)C(O)(Cn6cnnn6)c6cccc(Cl)c6)nc5)cc4)CC3)cc2)c1=O (mixture of isomers) [Example 127, 4-(4-(4-(4-(6-(2-(3-chlorophenyl)-1,1-difluoro-2-hydroxy-3-(1H-tetrazol-1-yl)propyl)pyridin-3-yl)phenyl)piperazin-1-yl)phenyl)-2-((2S,3S)-2-hydroxypentan-3-yl)-2,4-dihydro-3H-1,2,4-triazol-3-one] | 0.1 to 1 | > 8 | – | – | 20
5 | CC[C@@H]([C@H](C)O)n1ncn(-c2ccc(N3CCN(c4ccc(-c5ccc(C(F)(F)C(O)(Cn6cnnn6)c6ccccc6F)nc5)cc4)CC3)cc2)c1=O (stereo partly drawn) [38(−)] | – | – | 0.10 to 1.0 | >8 | 59
6 | CC[C@@H]([C@H](C)O)n1ncn(-c2ccc(N3CCN(c4ccc(-c5ccc(C(F)(F)C(O)(Cn6cnnn6)c6ccccc6F)nc5)cc4)CC3)cc2)c1=O (stereo partly drawn) [38(+)] | – | – | ≤0.0078 to 0.010 | 0.062 to 0.25 | 120
7 | N#Cc1ccc(N2CCN(c3ccc(-c4ccc(C(F)(F)C(O)(Cn5cnnn5)C5CC5)nc4)cc3)CC2)cc1 (stereo not drawn) [Example 36, 4-(4-(4-(6-(2-cyclopropyl-1,1-difluoro-2-hydroxy-3-(1H-tetrazol-1-yl)propyl)pyridin-3-yl)phenyl)piperazin-1-yl) benzonitrile] | 0.0078 to 0.01 (≈ 0.0144 to 0.0184 µM) | > 8 | – | – | 850
8 | CC[C@@H]([C@H](C)O)n1ncn(-c2ccc(N3CCN(c4ccc(-c5ccc(C(F)(F)C(O)(Cn6nccn6)c6cccc(Cl)c6)nc5)cc4)CC3)cc2)c1=O (stereo partly drawn) [Example 125] | > 8 | > 8 | – | – | 92

The next lines start with results.

Row | MIC [1] [µg/mL] | MIC [2] [µg/mL] | Candida albicans MIC [1] [µg/mL] | Aspergillus fumigatus MIC [2] [µg/mL] | SMILES | IC50 [3] [nM]
9 | > 8 | > 8 | – | – | CC[C@@H]([C@H](C)O)n1ncn(-c2ccc(N3CCN(c4ccc(-c5ccc(C(F)(F)C(O)(Cn6cccn6)c6ccccc6F)nc5)cc4)CC3)cc2)c1=O (stereo partly drawn) [Example 117] | 92
10 | > 8 | > 8 | – | – | CC[C@@H]([C@H](C)O)n1ncn(-c2ccc(N3CCN(c4ccc(-c5ccc(C(F)(F)C(O)(Cn6nccn6)c6ccc(F)cc6F)nc5)cc4)CC3)cc2)c1=O (stereo partly drawn) [Example 107, 4-(4-(4-(4-(6-(2-(2,4-difluorophenyl)-1,1-difluoro-2-hydroxy-3-(2H-1,2,3-triazol-2-yl)propyl)pyridin-3-yl)phenyl)piperazin-1-yl)phenyl)-2-((2S,3S)-2-hydroxypentan-3-yl)-2,4-dihydro-3H-1,2,4-triazol-3-one] | 270
11 | 0.1 to 1 (≈ 0.132 to 1.32 µM) | > 8 | – | – | CC[C@@H]([C@H](C)O)n1ncn(-c2ccc(N3CCN(c4ccc(-c5ccc(C(F)(F)C(O)(Cn6cccn6)c6ccc(F)cc6F)nc5)cc4)CC3)cc2)c1=O (stereo partly drawn) [Example 101, 4-(4-(4-(4-(6-(2-(2,4-difluorophenyl)-1,1-difluoro-2-hydroxy-3-(1H-pyrazol-1-yl)propyl)pyridin-3-yl)phenyl)piperazin-1-yl)phenyl)-2-((2S,3S)-2-hydroxypentan-3-yl)-2,4-dihydro-3H-1,2,4-triazol-3-one] | 217
12 | > 8 | > 8 | – | – | CC[C@@H]([C@H](C)O)n1ncn(-c2ccc(N3CCN(c4ccc(-c5ccc(C(F)(F)C(O)(Cn6nccn6)c6ccccc6F)nc5)cc4)CC3)cc2)c1=O (stereo partly drawn) [Example 116, 4-(4-(4-(4-(6-(1,1-difluoro-2-(2-fluorophenyl)-2-hydroxy-3-(2H-1,2,3-triazol-2-yl)propyl)pyridin-3-yl)phenyl)piperazin-1-yl)phenyl)-2-((2S,3S)-2-hydroxypentan-3-yl)-2,4-dihydro-3H-1,2,4-triazol-3-one] | 160
